Measurements from patent US4308210A, “Nanaomycin B and therapeutic compositions containing same” (The Kitasato Institute, priority 1976, dated 1981).
≈ marks a conversion by molar mass, not a printed value. Entries after “also recorded” stand apart in the source; their conditions may differ.

Assays:
[1] = test system: various fungi of some species belonging to the genus Trichophyton; test: Growth inhibition of fungi of the genus Trichophyton (text summary of Table 1); format: cell-based
[2] = test system: Escherichia coli NIHJ (JC-2); test: Antimicrobial spectrum, MIC, nutrient agar; format: cell-based; details: 48 h, nutrient agar (pH 7.0, 2 days, 37° C.)
[3] = test system: Staphylococcus aureus FDA 209P; test: Antimicrobial spectrum, MIC, nutrient agar; format: cell-based; details: FDA209P, 48 h, nutrient agar (pH 7.0, 2 days, 37° C.)
[4] = test system: Trichophyton violaceum; test: Antifungal activity, agar dilution method; format: cell-based; details: Trichophyton violaceum, 96 h, potato agar, pH 6.4, 27° C., 4 days, read-out: Minimal Inhibitory Con.
Method: (§1) Minimal inhibitory concentration is assayed by agar dilution method
(§2) (potato agar, pH 6.4, 27° C., 4 days)

[5] = test system: Candida albicans; test: Antifungal activity, agar dilution method; format: cell-based; details: Candida albicans, 96 h, potato agar, pH 6.4, 27° C., 4 days, read-out: Minimal Inhibitory Con.
Method: as §1, §2

[6] = test system: Aspergillus fumigatus; test: Antifungal activity, agar dilution method; format: cell-based; details: Aspergillus fumigatus, 96 h, potato agar, pH 6.4, 27° C., 4 days, read-out: Minimal Inhibitory Con.
Method: as §1, §2

[7] = test system: Saccharomyces sake; test: Antifungal activity, agar dilution method; format: cell-based; details: Saccharomyces, 96 h, potato agar, pH 6.4, 27° C., 4 days, read-out: Minimal Inhibitory Con.
Method: as §1, §2

[8] = test system: Microsporum gypseum; test: Antifungal activity, agar dilution method; format: cell-based; details: Nannizzia gypsea, 96 h, potato agar, pH 6.4, 27° C., 4 days, read-out: Minimal Inhibitory Con.
Method: as §1, §2

[9] = test system: Aspergillus niger; test: Antifungal activity, agar dilution method; format: cell-based; details: Aspergillus niger, 96 h, potato agar, pH 6.4, 27° C., 4 days, read-out: Minimal Inhibitory Con.
Method: as §1, §2

[10] = test system: Trichophyton rubrum; test: Antifungal activity, agar dilution method; format: cell-based; details: Trichophyton rubrum, 96 h, potato agar, pH 6.4, 27° C., 4 days, read-out: Minimal Inhibitory Con.
Method: as §1, §2

[11] = test system: Trichophyton schoenleini; test: Antifungal activity, agar dilution method; format: cell-based; details: Trichophyton, 96 h, potato agar, pH 6.4, 27° C., 4 days, read-out: Minimal Inhibitory Con.
Method: as §1, §2

[12] = test system: Trichophyton asteroides; test: Antifungal activity, agar dilution method; format: cell-based; details: Trichophyton, 96 h, potato agar, pH 6.4, 27° C., 4 days, read-out: Minimal Inhibitory Con.
Method: as §1, §2

[13] = test system: Trichophyton interdigitale; test: Antifungal activity, agar dilution method; format: cell-based; details: Trichophyton interdigitale, 96 h, potato agar, pH 6.4, 27° C., 4 days, read-out: Minimal Inhibitory Con.
Method: as §1, §2

[14] = test system: Trichophyton ferrugineum; test: Antifungal activity, agar dilution method; format: cell-based; details: Microsporum ferrugineum, 96 h, potato agar, pH 6.4, 27° C., 4 days, read-out: Minimal Inhibitory Con.
Method: as §1, §2

[15] = test system: mycoplasma; test: Antimycoplasma activity, paper disc method; format: cell-based
Method: Inhibitory zone is assayed by paper disc method (Eiken PPLO agar, pH 7.8,

[16] = Conversion of nanaomycin B into nanaomycin A depending on pH; format: physicochemical
Method: Nanaomycin B (200 mg) is dissolved in 60 ml of 0.1 N sodium hydroxide and the solution is allowed to stand for 10 minutes. After adjusting to pH 2.0 with 6 N hydrochloric acid, the product is extracted with ethyl acetate. The extract is evaporated and orange yellow needles are obtained from an ethanol solution of the product. The compound is identified as nanaomycin A by the melting point, IR spectrum and thin-layer chromatography.

[17] = test system: Gram-positive bacteria such as, for example Staphylococcus aureus; test: Growth inhibition of Gram-positive bacteria (text summary of Table 1); format: cell-based
[18] = test system: Mycoplasma gallisepticum; test: Therapeutic effect on chronic respiratory disease of chickens; format: in vivo
[19] = test system: Trichophyton interdigitale; test: Antimicrobial spectrum, MIC, potato agar; format: cell-based; details: 96 h, potato agar (pH 6.4, 4 days, 27° C.)
[20] = test system: Klebsiella pneumoniae PCI 602; test: Antimicrobial spectrum, MIC, nutrient agar; format: cell-based; details: PCI602, 48 h, nutrient agar (pH 7.0, 2 days, 37° C.)
Method: (§3) Medium N nutrient agar (pH 7.0, 2 days, 37° C.)
(§4) MIC Minimal inhibitory concentration

[21] = test system: Mycobacterium smegmatis; test: Antimicrobial spectrum, MIC, nutrient agar; format: cell-based; details: Mycolicibacterium smegmatis, 48 h; nutrient agar (pH 7.0, 2 days, 37° C.)
Method: as §3, §4

[22] = test system: Salmonella typhimurium; test: Antimicrobial spectrum, MIC, nutrient agar; format: cell-based; details: Salmonella enterica, 48 h, nutrient agar (pH 7.0, 2 days, 37° C.)
Method: as §3, §4

[23] = test system: Escherichia coli NIHJ; test: Antimicrobial spectrum, MIC, nutrient agar; format: cell-based; details: 48 h, nutrient agar (pH 7.0, 2 days, 37° C.)
Method: as §3, §4

[24] = test system: Shigella flexneri; test: Antimicrobial spectrum, MIC, nutrient agar; format: cell-based; details: 48 h, nutrient agar (pH 7.0, 2 days, 37° C.)
Method: as §3, §4

[25] = test system: Trichophyton rubrum; test: Antimicrobial spectrum, MIC, potato agar; format: cell-based; details: 96 h, potato agar (pH 6.4, 4 days, 27° C.)
[26] = test system: Trichophyton ferrugineum; test: Antimicrobial spectrum, MIC, potato agar; format: cell-based; details: Microsporum ferrugineum, 96 h; potato agar (pH 6.4, 4 days, 27° C.)
[27] = test system: Mycoplasma iners; test: Antimicrobial spectrum, MIC, PPLO agar; format: cell-based; details: Mycoplasmopsis iners, 192 h; Hokken PPLO agar (pH 7.8, 8 days, 37° C.)
Method: (§5) H Hokken PPLO agar (pH 7.8, 8 days, 37° C.)
as §4

[28] = test system: Mycoplasma gallinarum; test: Antimicrobial spectrum, MIC, PPLO agar; format: cell-based; details: Mycoplasmopsis gallinarum, 192 h, Hokken PPLO agar (pH 7.8, 8 days, 37° C.)
Method: as §5, §4

[29] = test system: Staphylococcus aureus FDA 209P (JC-1); test: Antimicrobial spectrum, MIC, nutrient agar; format: cell-based; details: FDA209P, 48 h, nutrient agar (pH 7.0, 2 days, 37° C.)
[30] = test system: mycoplasma; test: Activity against mycoplasma; format: cell-based; details: in words
Method: as §5
E Eiken PPLO agar (pH 7.8, 8 days, 37° C.)
as §4

[31] = test system: Sarcina lutea PCI 1001; test: Antimicrobial spectrum, MIC, nutrient agar; format: cell-based; details: Micrococcus luteus, PCI1001, 48 h; nutrient agar (pH 7.0, 2 days, 37° C.)

Question: With `CC1OC(CC(=O)O)CC2C(=O)c3cccc(O)c3C(=O)C12O` (stereo not drawn) [Nanaomycin B] as the compound, how does the MIC ([1]; Trichophyton, 96 h, summary of Table 1, read-out: growth inhibited at a concentration) read?
Answer: Its MIC is at most 25 µg/mL.

Question: And the activity on trycophyton ([1]; in words)?
Answer: The activity on trycophyton was “active”.

Question: What about the MIC [2] of the same compound?
Answer: Its MIC is 500 µg/mL (≈ 1560 µM).

Question: What about the MIC [3] of the same compound?
Answer: Its MIC is 3.9 µg/mL (≈ 12.2 µM).

Question: What about the MIC [4] of the same compound?
Answer: The MIC was 6.3 µg/mL (≈ 19.7 µM).

Question: What about the MIC [5] of the same compound?
Answer: Its MIC is over 100 µg/mL.

Question: What about the MIC [6] of the same compound?
Answer: The MIC was 50 µg/mL (≈ 156 µM).

Question: What about the MIC [7] of the same compound?
Answer: Its MIC is over 100 µg/mL.

Question: What about the MIC [8] of the same compound?
Answer: The MIC was 12.5 µg/mL (≈ 39 µM).

Question: What about the MIC [9] of the same compound?
Answer: Its MIC is over 100 µg/mL.

Question: What about the MIC [10] of the same compound?
Answer: The MIC was 6.3 µg/mL (≈ 19.7 µM).

Question: And the MIC [11]?
Answer: The MIC was 0.4 µg/mL (≈ 1.25 µM).

Question: What about the MIC [12] of the same compound?
Answer: The MIC was 12.5 µg/mL (≈ 39 µM).

Question: And the MIC [13]?
Answer: The MIC was 12.5 µg/mL (≈ 39 µM).

Question: And the MIC [14]?
Answer: Its MIC is 6.3 µg/mL (≈ 19.7 µM).

Question: And the zone of inhibition at 10 µg/mL ([15]; Mycoplasma, 24 h, 10 μg/ml, Eiken PPLO agar, pH 7.8, 37° C., 1 day, read-out: Inhibitory Zone)?
Answer: The zone of inhibition at 10 µg/mL was 22.7 mm.

Question: What about the zone of inhibition at 100 µg/mL ([15]; Mycoplasma, 24 h, 100 μg/ml, Eiken PPLO agar, pH 7.8, 37° C., 1 day, read-out: Inhibitory Zone) of the same compound?
Answer: The zone of inhibition at 100 µg/mL was 32.6 mm.

Question: What about the “antimycoplasma activity compared with ethylkalafunginate and deoxyfrenolicin” value ([15]; in words) of the same compound?
Answer: The value was “superior”.

Question: What about the “conversion into nanaomycin A in an acidic or neutral condition” value ([16]; acidic or neutral condition) of the same compound?
Answer: The value was “gradually converted”.

Question: What about the “conversion into nanaomycin A in an alkaline condition” value ([16]; alkaline condition) of the same compound?
Answer: The value was “easily converted into nanaomycin A”.

Question: And the MIC ([17]; Staphylococcus aureus, summary of Table 1, read-out: growth inhibited at a concentration)?
Answer: The MIC was 2 to 8 µg/mL (≈ 6.24 to 25 µM).

Question: And the “activity on Gram-positive bacteria” value ([17]; in words)?
Answer: Its value is “active”.

Question: And the “therapeutic effect on chronic respiratory disease” value [18]?
Answer: Its value is “therapeutic effect”.

Question: And the MIC [19]?
Answer: The MIC was 12.5 µg/mL (≈ 39 µM).

Question: And the MIC [20]?
Answer: Its MIC is 31.3 µg/mL (≈ 97.7 µM).

Question: What about the MIC [21] of the same compound?
Answer: Its MIC is 125 µg/mL (≈ 390 µM).

Question: And the MIC [22]?
Answer: Its MIC is 62.5 µg/mL (≈ 195 µM).

Question: What about the MIC [23] of the same compound?
Answer: Its MIC is 15.6 µg/mL (≈ 48.7 µM).

Question: And the MIC [24]?
Answer: The MIC was 62.5 µg/mL (≈ 195 µM).

Question: And the MIC [25]?
Answer: Its MIC is 3.1 µg/mL (≈ 9.68 µM).

Question: What about the MIC [26] of the same compound?
Answer: The MIC was 12.5 µg/mL (≈ 39 µM).

Question: What about the MIC [27] of the same compound?
Answer: Its MIC is 3.12 µg/mL (≈ 9.74 µM).

Question: And the MIC [28]?
Answer: Its MIC is 3.12 µg/mL (≈ 9.74 µM).

Question: What about the MIC [29] of the same compound?
Answer: The MIC was 2 µg/mL (≈ 6.24 µM).

Question: And the activity against mycoplasma [30]?
Answer: The activity against mycoplasma was “high activity; also recorded: especially strong activity”.

Question: And the MIC [31]?
Answer: Its MIC is 2 µg/mL (≈ 6.24 µM).
